We go through seven molecules from ChEMBL document CHEMBL1821713, “Synthesis and in vitro activity of novel 1,2,4-triazolo[4,3-a]pyrimidine oxazolidinone antibacterial agents. Part II” (Bioorg Med Chem Lett, 2011).

For orientation: MIC means the lowest concentration that inhibits growth of the organism. As a reminder, the inhibition is the drop in the measured response relative to a control, in per cent.

Values after ≈ are worked out from the molar mass of the structure shown.

The subject of data set [1] is Staphylococcus epidermidis. The data set can be described thus: Antibacterial activity against Staphylococcus epidermidis ATCC 12228 by CLSI method. The data set is classed as functional.
The next data set deals with Enterococcus faecalis. The data set can be described thus: Antibacterial activity against Enterococcus faecalis ATCC 29212 by CLSI method. The data set is classed as functional.
For data set [2], the system named is Staphylococcus aureus. Put plainly: Antibacterial activity against Staphylococcus aureus ATCC 25923 by CLSI method. Format: functional.
In data set [3] the test system is Staphylococcus aureus. Put plainly: Antibacterial activity against methicillin-resistant Staphylococcus aureus 43300 by CLSI method. Format: functional.
The test system of data set [4] is Staphylococcus aureus. The data set can be described thus: Antibacterial activity against Staphylococcus aureus ATCC 29213 by CLSI method relative to Linezolid. Format: functional.
Data set [5] relates to Staphylococcus epidermidis. Put plainly: Antibacterial activity against Staphylococcus epidermidis ATCC 12228 by CLSI method relative to Linezolid. Format: functional.
The test system of data set [6] is Staphylococcus aureus. The data set can be described thus: Antibacterial activity against Staphylococcus aureus ATCC 700699 Mu 50 by CLSI method relative to Linezolid. Format: functional.
For a further data set, the target named is CYP3A4 (Homo sapiens, UniProt P08684). The data set can be described thus: Inhibition of human recombinant CYP3A4 at 10 uM by fluorimetric analysis. The data set is classed as ADME.
The next data set concerns the target T1, CYP1A2 (Homo sapiens, UniProt P05177).
T1 sequence (P05177 whole entry): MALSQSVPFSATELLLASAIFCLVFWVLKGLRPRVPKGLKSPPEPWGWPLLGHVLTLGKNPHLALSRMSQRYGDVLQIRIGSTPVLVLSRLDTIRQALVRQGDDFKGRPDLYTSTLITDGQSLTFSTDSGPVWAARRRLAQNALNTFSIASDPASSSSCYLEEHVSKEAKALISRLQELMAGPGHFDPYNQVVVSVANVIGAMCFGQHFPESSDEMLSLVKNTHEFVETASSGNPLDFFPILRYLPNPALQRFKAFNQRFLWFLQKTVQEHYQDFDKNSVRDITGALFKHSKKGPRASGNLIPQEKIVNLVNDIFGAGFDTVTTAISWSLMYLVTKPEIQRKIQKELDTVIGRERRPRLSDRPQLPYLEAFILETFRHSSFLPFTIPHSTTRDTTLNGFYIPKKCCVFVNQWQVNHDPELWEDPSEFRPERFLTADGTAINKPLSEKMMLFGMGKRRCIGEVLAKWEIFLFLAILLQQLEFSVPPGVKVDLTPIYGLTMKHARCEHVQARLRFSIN
Put plainly: Inhibition of human recombinant CYP1A2 at 10 uM by fluorimetric analysis. Format: ADME.

The target of the next data set is CYP2C19 (Homo sapiens, UniProt P33261). Put plainly: Inhibition of human recombinant CYP2C19 at 10 uM by fluorimetric analysis. Format: ADME.
Data set [7] deals with Staphylococcus aureus. Put plainly: Antibacterial activity against Staphylococcus aureus FDA 209P by CLSI method relative to Linezolid. Format: functional.
In the next data set the target is CYP2C9 (Homo sapiens, UniProt P11712). The data set can be described thus: Inhibition of recombinant human cytochrome P450-2C9 at 10 uM by fluorimetric analysis. The data set is classed as ADME.
For another data set, the system named is Streptococcus pneumoniae. The data set can be described thus: Antibacterial activity against Streptococcus pneumoniae ATCC 49619 by CLSI method relative to Linezolid. Format: functional.
Another data set concerns Enterococcus faecium. The data set can be described thus: Antibacterial activity against Enterococcus faecium 06076VRE by CLSI method relative to Linezolid. Format: functional.
For the next data set, the system named is Streptococcus pyogenes. The data set can be described thus: Antibacterial activity against Streptococcus pyogenes ATCC 19615 by CLSI method relative to Linezolid. The data set is classed as functional.
The subject of data set [8] is Staphylococcus epidermidis. The data set can be described thus: Antibacterial activity against Staphylococcus epidermidis ATCC 14990 by CLSI method relative to Linezolid. The data set is classed as functional.
For data set [9], the system named is Staphylococcus aureus. The data set can be described thus: Antibacterial activity against Staphylococcus aureus ATCC 13709 Smith by CLSI method relative to Linezolid. The data set is classed as functional.
A further data set has as its target CYP2D6 (Homo sapiens, UniProt P10635). Put plainly: Inhibition of human recombinant CYP2D6 at 10 uM by fluorimetric analysis. Format: ADME.
Data set [10] concerns Staphylococcus aureus. The data set can be described thus: Antibacterial activity against Staphylococcus aureus ATCC 49775 PVL positive by CLSI method relative to Linezolid. Format: functional.

Sequence of CYP3A4 (P08684 whole entry): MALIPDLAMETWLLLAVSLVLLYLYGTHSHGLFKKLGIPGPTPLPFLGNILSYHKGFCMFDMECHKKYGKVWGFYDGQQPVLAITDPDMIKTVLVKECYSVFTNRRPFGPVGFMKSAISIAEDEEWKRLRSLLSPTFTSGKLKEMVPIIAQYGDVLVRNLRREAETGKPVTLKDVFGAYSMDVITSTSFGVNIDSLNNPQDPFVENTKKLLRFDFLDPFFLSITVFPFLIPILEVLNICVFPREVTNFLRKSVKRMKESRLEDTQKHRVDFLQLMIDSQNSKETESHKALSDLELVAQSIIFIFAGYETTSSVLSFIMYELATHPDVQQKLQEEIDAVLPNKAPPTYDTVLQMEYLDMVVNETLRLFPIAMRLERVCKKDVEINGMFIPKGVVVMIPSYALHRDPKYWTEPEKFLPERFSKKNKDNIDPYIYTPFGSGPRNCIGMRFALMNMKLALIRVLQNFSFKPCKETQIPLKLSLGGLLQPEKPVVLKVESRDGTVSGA
Sequence of CYP2C9 (P11712 whole entry): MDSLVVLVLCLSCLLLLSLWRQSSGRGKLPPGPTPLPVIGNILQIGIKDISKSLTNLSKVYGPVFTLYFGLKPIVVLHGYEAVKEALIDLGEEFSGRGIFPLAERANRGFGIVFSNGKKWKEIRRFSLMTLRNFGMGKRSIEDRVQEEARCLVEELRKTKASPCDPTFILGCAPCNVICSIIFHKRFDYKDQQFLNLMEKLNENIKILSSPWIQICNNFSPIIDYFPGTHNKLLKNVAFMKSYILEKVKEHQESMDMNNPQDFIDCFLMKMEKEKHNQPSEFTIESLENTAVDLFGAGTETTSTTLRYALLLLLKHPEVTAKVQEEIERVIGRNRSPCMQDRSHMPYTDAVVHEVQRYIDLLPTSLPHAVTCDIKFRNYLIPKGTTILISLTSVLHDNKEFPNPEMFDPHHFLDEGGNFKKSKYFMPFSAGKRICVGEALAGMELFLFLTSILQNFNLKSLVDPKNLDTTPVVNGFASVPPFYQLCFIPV
Sequence of CYP2C19 (P33261 whole entry): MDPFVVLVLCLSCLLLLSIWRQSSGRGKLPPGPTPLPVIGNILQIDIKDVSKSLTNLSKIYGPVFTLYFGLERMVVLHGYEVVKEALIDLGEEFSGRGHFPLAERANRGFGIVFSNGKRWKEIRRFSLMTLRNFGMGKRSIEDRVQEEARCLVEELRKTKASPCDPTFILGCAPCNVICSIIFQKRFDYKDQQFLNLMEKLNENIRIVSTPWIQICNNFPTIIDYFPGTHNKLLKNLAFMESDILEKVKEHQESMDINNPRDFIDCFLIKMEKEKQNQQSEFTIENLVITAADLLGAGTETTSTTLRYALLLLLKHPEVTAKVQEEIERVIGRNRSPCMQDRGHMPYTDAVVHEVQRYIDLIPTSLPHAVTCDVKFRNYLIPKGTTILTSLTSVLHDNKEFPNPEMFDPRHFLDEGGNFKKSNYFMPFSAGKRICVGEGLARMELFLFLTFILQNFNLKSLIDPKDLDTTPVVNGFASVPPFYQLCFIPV
Sequence of CYP2D6 (P10635 whole entry): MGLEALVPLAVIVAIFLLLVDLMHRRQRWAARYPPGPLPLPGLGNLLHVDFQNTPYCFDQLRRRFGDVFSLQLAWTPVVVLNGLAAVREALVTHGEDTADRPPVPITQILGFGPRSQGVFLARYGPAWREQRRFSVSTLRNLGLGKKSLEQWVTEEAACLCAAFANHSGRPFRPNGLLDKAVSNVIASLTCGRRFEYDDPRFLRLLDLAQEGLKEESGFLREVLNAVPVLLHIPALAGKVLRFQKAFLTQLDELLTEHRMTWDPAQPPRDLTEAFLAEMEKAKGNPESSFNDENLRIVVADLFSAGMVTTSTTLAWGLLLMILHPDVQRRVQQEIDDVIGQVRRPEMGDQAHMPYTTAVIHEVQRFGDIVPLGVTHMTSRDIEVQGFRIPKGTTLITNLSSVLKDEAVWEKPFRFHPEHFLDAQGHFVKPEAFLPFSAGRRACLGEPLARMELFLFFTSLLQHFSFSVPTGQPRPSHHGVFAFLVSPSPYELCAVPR

With `CC(=O)NC[C@H]1CN(c2ccc(-c3ccc(-c4nnc5ncccn45)c(F)c3)c(F)c2)C(=O)O1`, the MIC in data set [1] was 0.5 µg/mL (≈ 1.08 µM); against Enterococcus faecalis, 0.5 µg/mL (≈ 1.08 µM); in the data set with Staphylococcus aureus [2] it was 0.5 µg/mL (≈ 1.08 µM); with Staphylococcus aureus [3], 0.125 µg/mL (≈ 0.269 µM).

For the molecule `CC(=O)NC[C@H]1CN(c2ccc(-c3ccc(-c4nnc5ncccn45)nc3)c(F)c2)C(=O)O1`, the minimal inhibitory concentration (MIC) stood at 0.5 µg/mL (≈ 1.12 µM) in data set [1], 0.5 µg/mL (≈ 1.12 µM) against Enterococcus faecalis, 0.25 µg/mL (≈ 0.559 µM) against Staphylococcus aureus [2] and 0.125 µg/mL (≈ 0.279 µM) in the data set on Staphylococcus aureus [3].

Consider `CC(=O)NC[C@H]1CN(c2ccc(-c3cccc(-c4nnc5ncccn45)c3)c(F)c2)C(=O)O1`, for which the MIC in data set [1] is 4 µg/mL (≈ 8.96 µM); in the data set with Enterococcus faecalis, 4 µg/mL (≈ 8.96 µM); against Staphylococcus aureus [2] it was 4 µg/mL (≈ 8.96 µM); in the data set on Staphylococcus aureus [3], 1 µg/mL (≈ 2.24 µM).

Consider `COc1ccc(-c2ccc(N3C[C@H](CNC(C)=O)OC3=O)cc2F)cc1-c1nnc2ncccn12`, for which the MIC is greater than 16 µg/mL in [1], 16 µg/mL (≈ 33.6 µM) against Enterococcus faecalis, 16 µg/mL (≈ 33.6 µM) against Staphylococcus aureus [2] and 8 µg/mL (≈ 16.8 µM) against Staphylococcus aureus [3].

Regarding `CC(=O)NC[C@H]1CN(c2ccc(-c3csc(-c4nnc5ncccn45)c3)c(F)c2)C(=O)O1`, the “fold change (FC)” value (with Staphylococcus aureus [4]; in data set [5]; with Staphylococcus aureus [6]; with Staphylococcus aureus [7]; in the data set with Streptococcus pneumoniae; in the data set on Enterococcus faecium) was 4 in each case. Also, the “fold change (FC)” value (in the data set on Streptococcus pyogenes; in data set [8]; with Staphylococcus aureus [9]; in the data set with Staphylococcus aureus [10]) was 4 each time. Further, the minimal inhibitory concentration (MIC) was 0.25 µg/mL (≈ 0.553 µM) in data set [1], 0.06 µg/mL (≈ 0.133 µM) against Enterococcus faecalis, 0.125 µg/mL (≈ 0.276 µM) against Staphylococcus aureus [2] and 0.125 µg/mL (≈ 0.276 µM) against Staphylococcus aureus [3]. The inhibition at 10 µM on CYP3A4 came to 37.7%; at CYP1A2, 4.3%; on CYP2C19, 36.2%; on CYP2C9, 40.9%; on CYP2D6 it was 5.6%.

On to `CC(=O)NC[C@H]1CN(c2cccc(F)c2)C(=O)O1`, for which the MIC in [1] was 16 µg/mL (≈ 63.4 µM); in the data set on Enterococcus faecalis, greater than 16 µg/mL; with Staphylococcus aureus [2] it was greater than 16 µg/mL; against Staphylococcus aureus [3] it was 16 µg/mL (≈ 63.4 µM).

Consider `CC(=O)NC[C@H]1CN(c2ccc(N3CCOCC3)c(F)c2)C(=O)O1` [LINEZOLID], for which, in data set [1], the MIC worked out at 1 µg/mL (≈ 2.96 µM).
